Test in all cases: microbe, parasite or virus in culture
Holding throughout (assay type): cell-based, Mycobacterium tuberculosis

Assay [1] deals with fluoroquinolone resistant strain FQ-R1.
Assay [2] relates to isoniazid resistant strain INH-R2.
The test system of assay [3] is isoniazid resistant strain INH-R1.
For assay [4], the system named is rifampicin resistant strain RIF-R2.
For assay [5], the system named is rifampicin resistant strain RIF-R1.
The mark [6] stands for this setting: Mycobacterium tuberculosis, FQR1, read-out: IC50.
[7] abbreviates: Mycobacterium tuberculosis, FQR1, read-out: IC90.
Setting [8] is: Mycobacterium tuberculosis, FQR1, read-out: MIC.
[9] abbreviates: Mycobacterium tuberculosis, INHR2.
Where [10] appears, read: Mycobacterium tuberculosis, INHR1.
[11] abbreviates: Mycobacterium tuberculosis, RIFR2, read-out: IC50.
[12] abbreviates: Mycobacterium tuberculosis, RIFR2, read-out: IC90.
Setting [13] is: Mycobacterium tuberculosis, RIFR2, read-out: MIC.
[14] abbreviates: Mycobacterium tuberculosis, RIFR1, read-out: IC50.
Setting [15] is: Mycobacterium tuberculosis, RIFR1, read-out: IC90.
The mark [16] stands for this setting: Mycobacterium tuberculosis, RIFR1, read-out: MIC.
The mark [17] stands for this setting: Mycobacterium tuberculosis, FQR1.
Setting [18] is: Mycobacterium tuberculosis, RIFR2.
The mark [19] stands for this setting: Mycobacterium tuberculosis, RIFR1.

≈ marks a conversion by molar mass, not a printed value. Like-named read-outs stand apart in the source and are kept apart here. A value given as a limit tells only on which side of the number the result lay.

By IC50 is commonly meant the concentration needed to halve the response being measured. One may read the IC90 as the point of the concentration-response curve where the effect stands at 90%.

Regarding `NNC(=O)c1ccncc1` [Isoniazid, reference compound], the half-maximal inhibitory concentration (IC50) is 0.13 µM in assay [1] (setting [6]); more than 200 µM in assay [2] (setting [9]); more than 200 µM in assay [3] (setting [10]); 0.27 µM in assay [4] (setting [11]); 0.063 µM in assay [5] (setting [14]). Further, the IC90 in assay [1] (setting [7]) was 0.15 µM; in assay [2] (setting [9]), more than 200 µM; in assay [3] (setting [10]), more than 200 µM; in assay [4] (setting [12]) it was 0.3 µM; in assay [5] (setting [15]) it was 0.094 µM. The MIC in assay [1] (setting [8]) is 0.16 µM (≈ 0.0219 µg/mL); in assay [2] (setting [9]), more than 200 µM; in assay [3] (setting [10]), more than 200 µM; in assay [4] (setting [13]) it was 0.31 µM (≈ 0.0425 µg/mL); in assay [5] (setting [16]), 0.092 µM (≈ 0.0126 µg/mL).
For the compound “4-[3-(4-Chlorophenyl)-1-(ethoxycarbonyl)indolizine-7-yl)-1-(2-(4-methoxyphenyl)-2-oxoethyl)pyridine-1-ium bromide [Compound 6c]”, the IC50 stood at 8 µM in assay [1] (read-out: IC50); 6.2 µM in assay [2] (INH-R2, read-out: IC50); 6.9 µM in assay [3] (INH-R1, read-out: IC50); 6.5 µM in assay [5] (read-out: IC50). Further, the IC90 worked out at 16 µM in assay [1] (read-out: IC90); 19 µM in assay [2] (INH-R2, read-out: IC90); 14 µM in assay [3] (INH-R1, read-out: IC90); 12 µM in assay [4] (read-out: IC90); 10 µM in assay [5] (read-out: IC90). Further, the MIC was 16 µM in assay [1] (read-out: MIC); 16 µM in assay [2] (INH-R2); 14 µM in assay [3] (INH-R1); 13 µM in assay [4] (read-out: MIC); 10 µM in assay [5] (read-out: MIC).
With `CO[C@H]1/C=C/O[C@@]2(C)Oc3c(C)c(O)c4c(O)c(c(/C=N/N5CCN(C)CC5)c(O)c4c3C2=O)NC(=O)/C(C)=C\C=C\[C@H](C)[C@H](O)[C@@H](C)[C@@H](O)[C@@H](C)[C@H](OC(C)=O)[C@@H]1C` [Rifampicin, reference compound], the half-inhibitory concentration (IC50) in assay [1] (setting [17]) was 0.013 µM; in assay [2] (setting [9]), 0.007 µM; in assay [3] (setting [10]) it was 0.012 µM; in assay [4] (setting [18]) it was more than 50 µM; in assay [5] (setting [19]), 1.1 µM. The IC90 in assay [1] (setting [17]) is 0.033 µM; in assay [2] (setting [9]), 0.016 µM; in assay [3] (setting [10]), 0.031 µM; in assay [4] (setting [18]), more than 50 µM; in assay [5] (setting [19]) it was 3.8 µM. The MIC was 0.024 µM (≈ 0.0198 µg/mL) in assay [1] (setting [17]); 0.013 µM (≈ 0.0107 µg/mL) in assay [2] (setting [9]); 0.022 µM (≈ 0.0181 µg/mL) in assay [3] (setting [10]); more than 50 µM in assay [4] (setting [18]); 5.3 µM (≈ 4.36 µg/mL) in assay [5] (setting [19]).
For `CCOC(=O)c1cc(C(=O)c2ccc(Cl)cc2)n2ccc(-c3cc[n+](CC(=O)c4cccc(OC)c4)cc3)cc12` [Compound 6d, 4-(3-(4-Chlorobenzoyl)-1-(ethoxycarbonyl)indolizine-7-yl)-1-(2-(3-methoxyphenyl)-2-oxoethyl)pyridin-1-ium], the IC50 was 21 µM in assay [1] (setting [6]); 15 µM in assay [2] (setting [9]); 14 µM in assay [3] (setting [10]); 12 µM in assay [4] (setting [11]); 12 µM in assay [5] (setting [14]). The IC90 worked out at 32 µM in assay [1] (setting [7]); 35 µM in assay [2] (setting [9]); 36 µM in assay [3] (setting [10]); 14 µM in assay [4] (setting [12]); 24 µM in assay [5] (setting [15]). The MIC was found to be 32 µM in assay [1] (setting [8]); 30 µM in assay [2] (setting [9]); 28 µM in assay [3] (setting [10]); 16 µM in assay [4] (setting [13]); 22 µM in assay [5] (setting [16]).
On to `CCOC(=O)c1cc(C(=O)c2ccccc2)n2ccc(-c3cc[n+](CC(=O)c4ccc(C)cc4)cc3)cc12.[Br-]` [Compound 6a, 4-(3-Benzoyl-1-(ethoxycarbonyl)indolizine-7-yl)-1-(2-oxo-2-(p-tolyl)ethyl)pyridin-1-ium bromide], for which the IC50 was found to be 15 µM in assay [1] (setting [6]); 12 µM in assay [2] (setting [9]); 13 µM in assay [3] (setting [10]); 12 µM in assay [4] (setting [11]); 8.3 µM in assay [5] (setting [14]). The IC90 was 32 µM in assay [1] (setting [7]); 22 µM in assay [2] (setting [9]); 35 µM in assay [3] (setting [10]); 29 µM in assay [4] (setting [12]); 13 µM in assay [5] (setting [15]). For the same compound, the MIC in assay [1] (setting [8]) was 31 µM; in assay [2] (setting [9]) it was 19 µM; in assay [3] (setting [10]) it was 33 µM; in assay [4] (setting [13]), 31 µM; in assay [5] (setting [16]), 14 µM.
As to `C[C@H]1COc2c(N3CCN(C)CC3)c(F)cc3c(=O)c(C(=O)O)cn1c23` [Levofloxacin, levofloxacin, reference compound], the IC50 in assay [1] (setting [6]) was 49 µM; in assay [2] (setting [9]) it was 2.4 µM; in assay [3] (setting [10]), 1.9 µM; in assay [4] (setting [11]), 1.7 µM; in assay [5] (setting [14]), 1.6 µM. Further, the IC90 in assay [1] (setting [7]) was 110 µM; in assay [2] (setting [9]), 4.3 µM; in assay [3] (setting [10]) it was 3 µM; in assay [4] (setting [12]), 3 µM; in assay [5] (setting [15]), 2.6 µM. Further, the MIC was found to be 110 µM (≈ 39.8 µg/mL) in assay [1] (setting [8]); 3.5 µM (≈ 1.26 µg/mL) in assay [2] (setting [9]); 2.9 µM (≈ 1.05 µg/mL) in assay [3] (setting [10]); 2.9 µM (≈ 1.05 µg/mL) in assay [4] (setting [13]); 2.7 µM (≈ 0.976 µg/mL) in assay [5] (setting [16]).
For `CCOC(=O)c1cc(C(=O)c2ccc(Cl)cc2)n2ccc(-c3cc[n+](CC(=O)c4ccc(C)cc4)cc3)cc12` [Compound 6i], the half-inhibitory concentration (IC50) is 11 µM in assay [1] (setting [6]); 9.8 µM in assay [2] (setting [9]); 13 µM in assay [3] (setting [10]); 12 µM in assay [4] (setting [11]); 7.7 µM in assay [5] (setting [14]). The IC90 in assay [1] (setting [7]) amounted to 28 µM; in assay [2] (setting [9]), 20 µM; in assay [3] (setting [10]) it was 23 µM; in assay [4] (setting [12]) it was 22 µM; in assay [5] (setting [15]), 15 µM. Moreover, the MIC was 27 µM in assay [1] (setting [8]); 20 µM in assay [2] (setting [9]); 22 µM in assay [3] (setting [10]); 22 µM in assay [4] (setting [13]); 15 µM in assay [5] (setting [16]).
Regarding `CCOC(=O)c1cc(C(=O)c2ccc(Br)cc2)n2ccc(-c3cc[n+](CC(=O)c4cccc(OC)c4)cc3)cc12` [Compound 6h, 4-(3-(4-Bromobenzoyl)-1-(ethoxycarbonyl)indolizine-7-yl)-1-(2-(3-methoxyphenyl)-2-oxoethyl)pyridin-1-ium], the IC50 in assay [1] (setting [6]) was determined as 26 µM; in assay [2] (setting [9]), 16 µM; in assay [3] (setting [10]), 18 µM; in assay [4] (setting [11]), 15 µM; in assay [5] (setting [14]), 13 µM. For the same compound, the concentration for an effect of 90% (IC90) in assay [1] (setting [7]) is more than 50 µM; in assay [2] (setting [9]), 43 µM; in assay [3] (setting [10]), more than 50 µM; in assay [4] (setting [12]), more than 50 µM; in assay [5] (setting [15]), 26 µM. For the same compound, the MIC was more than 50 µM in assay [1] (setting [8]); more than 50 µM in assay [2] (setting [9]); more than 50 µM in assay [3] (setting [10]); more than 50 µM in assay [4] (setting [13]); 24 µM in assay [5] (setting [16]).

These data come from article PMC6021032, “Antimycobacterial activity of nitrogen heterocycles derivatives: 7-(pyridine-4-yl)-indolizine derivatives. Part VII^8–12” (Journal of Enzyme Inhibition and Medicinal Chemistry, 2017).
